Laboratory results reported in US10004701B2, “Methods and compositions for treating infection” (UNIVERSITY OF ROCHESTER, priority 2012, dated 2018).
Where a name gives a salt, the structure may show the parent alone. Read-outs that look alike come from different tables or passages of the source.

How the values were obtained:
Experiment in all cases: AK assay 384-well format, Prestwick library screening
E. faecium = type: cell-based, Enterococcus faecium; conditions: 50 μM final drug concentration; for fold induction at 50 µM: Enterococcus faecium, 3 h
[1] = system: S. aureus strain USA300-0114; type: cell-based, Staphylococcus aureus; conditions: 50 μM final drug concentration; for fold induction at 50 µM: Staphylococcus aureus, USA300, 3 h
K. pneumoniae = type: cell-based, Klebsiella pneumoniae; conditions: 50 μM final drug concentration; for fold induction at 50 µM: Klebsiella pneumoniae, 3 h
[2] = system: A. baumannii strain 98-37-09; type: cell-based, Acinetobacter baumannii; conditions: 50 μM final drug concentration; for fold induction at 50 µM: Acinetobacter baumannii, 983709, 3 h
P. aeruginosa = type: cell-based, Pseudomonas aeruginosa; conditions: 50 μM final drug concentration; for fold induction at 50 µM: Pseudomonas aeruginosa, 3 h
E. cloacae = type: cell-based, Enterobacter cloacae; conditions: 50 μM final drug concentration; for fold induction at 50 µM: Enterobacter cloacae, 3 h
E. coli = type: cell-based, Escherichia coli; conditions: 50 μM final drug concentration; for fold induction at 50 µM: Escherichia coli, 3 h

CN(C)CCCC1(c2ccc(F)cc2)OCc2cc(C#N)ccc21 (centres unmarked) [Citalopram Hydrobromide]
fold induction at 50 µM (E. faecium; cutoff for positive-scoring molecules 3-fold increase, read-out: AK-based Prestwick Library Screening Results, E. faecium (fold increase in extracellular AK activity)): 1 | fold induction at 50 µM ([1]; cutoff for positive-scoring molecules 3-fold increase, read-out: AK-based Prestwick Library Screening Results, S. aureus (fold increase in extracellular AK activity)): 1 | fold induction at 50 µM (K. pneumoniae; cutoff for positive-scoring molecules 3-fold increase, read-out: AK-based Prestwick Library Screening Results, K. pneumoniae (fold increase in extracellular AK activity)): 0.9 | fold induction at 50 µM ([2]; cutoff for positive-scoring molecules 3-fold increase, read-out: AK-based Prestwick Library Screening Results, A. baumannii (fold increase in extracellular AK activity)): 0.9 | fold induction at 50 µM (P. aeruginosa; cutoff for positive-scoring molecules 3-fold increase, read-out: AK-based Prestwick Library Screening Results, P. aeruginosa (fold increase in extracellular AK activity)): 1.2 | fold induction at 50 µM (E. cloacae; cutoff for positive-scoring molecules 3-fold increase, read-out: AK-based Prestwick Library Screening Results, E. cloacae (fold increase in extracellular AK activity)): 1.5 | fold induction at 50 µM (E. coli; cutoff for positive-scoring molecules 3-fold increase, read-out: AK-based Prestwick Library Screening Results, E. coli (fold increase in extracellular AK activity)): 1

C=CCN1CCCC1CNC(=O)c1cc2[nH]nnc2cc1OC (centres unmarked) [Alizapride HCl]
fold induction at 50 µM (E. faecium; planktonic, cutoff for positive 3-fold increase, read-out: AK-based Prestwick Library Screening Results, E. faecium (fold increase in extracellular AK activity)): 1 | fold induction at 50 µM ([1]; planktonic, cutoff for positive 3-fold increase, read-out: AK-based Prestwick Library Screening Results, S. aureus (fold increase in extracellular AK activity)): 1 | fold induction at 50 µM (K. pneumoniae; planktonic, cutoff for positive 3-fold increase, read-out: AK-based Prestwick Library Screening Results, K. pneumoniae (fold increase in extracellular AK activity)): 0.9 | fold induction at 50 µM ([2]; planktonic, cutoff for positive 3-fold increase, read-out: AK-based Prestwick Library Screening Results, A. baumannii (fold increase in extracellular AK activity)): 1.1 | fold induction at 50 µM (P. aeruginosa; planktonic, cutoff for positive 3-fold increase, read-out: AK-based Prestwick Library Screening Results, P. aeruginosa (fold increase in extracellular AK activity)): 1.1 | fold induction at 50 µM (E. cloacae; planktonic, cutoff for positive 3-fold increase, read-out: AK-based Prestwick Library Screening Results, E. cloacae (fold increase in extracellular AK activity)): 1.4 | fold induction at 50 µM (E. coli; planktonic, cutoff for positive 3-fold increase, read-out: AK-based Prestwick Library Screening Results, E. coli (fold increase in extracellular AK activity)): 1

CC(C(=O)O)c1ccc(C(=O)c2cccs2)cc1 (centres unmarked) [Suprofen]
fold induction at 50 µM (E. faecium; planktonic, cutoff for positive-scoring molecules 3-fold increase, read-out: AK-based Prestwick Library Screening Results, E. faecium (fold increase in extracellular AK activity)): 0.9 | fold induction at 50 µM ([1]; planktonic, cutoff for positive-scoring molecules 3-fold increase, read-out: AK-based Prestwick Library Screening Results, S. aureus (fold increase in extracellular AK activity)): 0.6 | fold induction at 50 µM (K. pneumoniae; planktonic, cutoff for positive-scoring molecules 3-fold increase, read-out: AK-based Prestwick Library Screening Results, K. pneumoniae (fold increase in extracellular AK activity)): 0.7 | fold induction at 50 µM ([2]; planktonic, cutoff for positive-scoring molecules 3-fold increase, read-out: AK-based Prestwick Library Screening Results, A. baumannii (fold increase in extracellular AK activity)): 0.8 | fold induction at 50 µM (P. aeruginosa; planktonic, cutoff for positive-scoring molecules 3-fold increase, read-out: AK-based Prestwick Library Screening Results, P. aeruginosa (fold increase in extracellular AK activity)): 0.7 | fold induction at 50 µM (E. cloacae; planktonic, cutoff for positive-scoring molecules 3-fold increase, read-out: AK-based Prestwick Library Screening Results, E. cloacae (fold increase in extracellular AK activity)): 0.9 | fold induction at 50 µM (E. coli; planktonic, cutoff for positive-scoring molecules 3-fold increase, read-out: AK-based Prestwick Library Screening Results, E. coli (fold increase in extracellular AK activity)): 0.7

CCN(CC)CCCC(C)Nc1c2ccc(Cl)cc2nc2ccc(OC)cc12 (centres unmarked) [Quinacrine dihydrochloride dihydrate]
fold induction at 50 µM (E. faecium; planktonic E. faecium, 384-well, cutoff for positive-scoring molecules 3-fold increase, read-out: AK-based Prestwick Library Screening Results: E. faecium (increase in extracellular AK activity)): 1 | fold induction at 50 µM ([1]; planktonic S. aureus, 384-well, cutoff for positive-scoring molecules 3-fold increase, read-out: AK-based Prestwick Library Screening Results: S. aureus (increase in extracellular AK activity)): 1.2 | fold induction at 50 µM (K. pneumoniae; planktonic K. pneumoniae, 384-well, cutoff for positive-scoring molecules 3-fold increase, read-out: AK-based Prestwick Library Screening Results: K. pneumoniae (increase in extracellular AK activity)): 1 | fold induction at 50 µM ([2]; planktonic A. baumannii, 384-well, cutoff for positive-scoring molecules 3-fold increase, read-out: AK-based Prestwick Library Screening Results: A. baumannii (increase in extracellular AK activity)): 1.3 | fold induction at 50 µM (P. aeruginosa; planktonic P. aeruginosa, 384-well, cutoff for positive-scoring molecules 3-fold increase, read-out: AK-based Prestwick Library Screening Results: P. aeruginosa (increase in extracellular AK activity)): 0.9 | fold induction at 50 µM (E. cloacae; planktonic E. cloacae, 384-well, cutoff for positive-scoring molecules 3-fold increase, read-out: AK-based Prestwick Library Screening Results: E. cloacae (increase in extracellular AK activity)): 1.4 | fold induction at 50 µM (E. coli; planktonic E. coli, 384-well, cutoff for positive-scoring molecules 3-fold increase, read-out: AK-based Prestwick Library Screening Results: E. coli (increase in extracellular AK activity)): 1.2

COc1ccn(C)c(=O)c1C#N [Ricinine]
fold induction at 50 µM (E. faecium; planktonic, […], read-out: AK-based Prestwick Library Screening Results, E. faecium (fold increase in extracellular AK activity)): 0.9 | fold induction at 50 µM ([1]; planktonic, […], read-out: AK-based Prestwick Library Screening Results, S. aureus (fold increase in extracellular AK activity)): 0.9 | fold induction at 50 µM (K. pneumoniae; planktonic, […], read-out: AK-based Prestwick Library Screening Results, K. pneumoniae (fold increase in extracellular AK activity)): 0.8 | fold induction at 50 µM ([2]; planktonic, […], read-out: AK-based Prestwick Library Screening Results, A. baumannii (fold increase in extracellular AK activity)): 0.8 | fold induction at 50 µM (P. aeruginosa; planktonic, […], read-out: AK-based Prestwick Library Screening Results, P. aeruginosa (fold increase in extracellular AK activity)): 0.7 | fold induction at 50 µM (E. cloacae; planktonic, […], read-out: AK-based Prestwick Library Screening Results, E. cloacae (fold increase in extracellular AK activity)): 1.3 | fold induction at 50 µM (E. coli; planktonic, […], read-out: AK-based Prestwick Library Screening Results, E. coli (fold increase in extracellular AK activity)): 0.8

NCC(CC(=O)O)c1ccc(Cl)cc1 (racemic) [Baclofen (R,S)]
AK-based Prestwick Library Screening Results, E. faecium (increase in extracellular AK activity) (E. faecium; 384-well format, […]): 0.8 | AK-based Prestwick Library Screening Results, S. aureus (increase in extracellular AK activity) ([1]; 384-well format, […]): 0.4 | AK-based Prestwick Library Screening Results, K. pneumoniae (increase in extracellular AK activity) (K. pneumoniae; 384-well format, […]): 0.6 | AK-based Prestwick Library Screening Results, A. baumannii (increase in extracellular AK activity) ([2]; 384-well format, […]): 0.4 | AK-based Prestwick Library Screening Results, P. aeruginosa (increase in extracellular AK activity) (P. aeruginosa; 384-well format, […]): 0.3 | AK-based Prestwick Library Screening Results, E. cloacae (increase in extracellular AK activity) (E. cloacae; 384-well format, […]): 0.3 | AK-based Prestwick Library Screening Results, E. coli (increase in extracellular AK activity) (E. coli; 384-well format, […]): 0.5

NC(=O)OCC(O)COc1ccc(Cl)cc1 (centres unmarked) [Chlorphensin carbamate]
AK-based Prestwick Library Screening Results: E. faecium (increase in extracellular AK activity) (E. faecium; planktonic E. faecium, 384-well, cutoff for positive-scoring molecules 3-fold increase): 0.9 | AK-based Prestwick Library Screening Results: S. aureus (increase in extracellular AK activity) ([1]; planktonic S. aureus, 384-well, cutoff for positive-scoring molecules 3-fold increase): 1.0 | AK-based Prestwick Library Screening Results: K. pneumoniae (increase in extracellular AK activity) (K. pneumoniae; planktonic K. pneumoniae, 384-well, cutoff for positive-scoring molecules 3-fold increase): 1.1 | AK-based Prestwick Library Screening Results: A. baumannii (increase in extracellular AK activity) ([2]; planktonic A. baumannii, 384-well, cutoff for positive-scoring molecules 3-fold increase): 1.3 | AK-based Prestwick Library Screening Results: P. aeruginosa (increase in extracellular AK activity) (P. aeruginosa; planktonic P. aeruginosa, 384-well, cutoff for positive-scoring molecules 3-fold increase): 1.1 | AK-based Prestwick Library Screening Results: E. cloacae (increase in extracellular AK activity) (E. cloacae; planktonic E. cloacae, 384-well, cutoff for positive-scoring molecules 3-fold increase): 1.4 | AK-based Prestwick Library Screening Results: E. coli (increase in extracellular AK activity) (E. coli; planktonic E. coli, 384-well, cutoff for positive-scoring molecules 3-fold increase): 1.2

O=C(/C=C/c1ccc(O)c(O)c1)O[C@@H]1C[C@](O)(C(=O)O)C[C@@H](O)[C@H]1O [Chlorogenic acid]
fold induction at 50 µM (E. faecium; planktonic E. faecium, cutoff for positive-scoring molecules 3-fold increase, read-out: AK-based Prestwick Library Screening Results, E. faecium (increase in extracellular AK activity)): 0.9 | fold induction at 50 µM ([1]; planktonic S. aureus, cutoff for positive-scoring molecules 3-fold increase, read-out: AK-based Prestwick Library Screening Results, S. aureus (increase in extracellular AK activity)): 0.5 | fold induction at 50 µM (K. pneumoniae; planktonic K. pneumoniae, cutoff for positive-scoring molecules 3-fold increase, read-out: AK-based Prestwick Library Screening Results, K. pneumoniae (increase in extracellular AK activity)): 0.7 | fold induction at 50 µM ([2]; planktonic A. baumannii, cutoff for positive-scoring molecules 3-fold increase, read-out: AK-based Prestwick Library Screening Results, A. baumannii (increase in extracellular AK activity)): 0.8 | fold induction at 50 µM (P. aeruginosa; planktonic P. aeruginosa, cutoff for positive-scoring molecules 3-fold increase, read-out: AK-based Prestwick Library Screening Results, P. aeruginosa (increase in extracellular AK activity)): 0.7 | fold induction at 50 µM (E. cloacae; planktonic E. cloacae, cutoff for positive-scoring molecules 3-fold increase, read-out: AK-based Prestwick Library Screening Results, E. cloacae (increase in extracellular AK activity)): 0.8 | fold induction at 50 µM (E. coli; planktonic E. coli, cutoff for positive-scoring molecules 3-fold increase, read-out: AK-based Prestwick Library Screening Results, E. coli (increase in extracellular AK activity)): 0.8
